Where a name gives a salt, the structure may show the parent alone. Read-outs that look alike come from different tables or passages of the source.
Key:
human recombinant DPP-IV = biological target: T1, human recombinant DPP-IV (Homo sapiens, UniProt P27487); test: Inhibition of human recombinant DPP-IV (Gly-Pro-AMC hydrolysis, fluorometric); assay type: biochemical; details: for IC50: human recombinant DPP-IV, 50 μM Gly-Pro-AMC, 30 min at 30° C.
T1 construct: purchased R&D Systems, USA (or produced in-house)
Procedure, shortened: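 Enzyme (10 ng) was preincubated 15 min at 30° C. with compound (10 and 100 nM screen; 8 concentrations 0.1-1000 nM) in Tris-HCl pH 7.4, NaCl, KCl, BSA. 50 μM Gly-Pro-AMC was added for 30 min at 30° C. and AMC fluorescence was read (ex 360/em 460 nm). Results are given as % inhibition versus vehicle or as IC50.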

plasma DPP-IV = biological target: T2, plasma DPP-IV (Rattus norvegicus, UniProt P14740); test: Measurement of plasma DPP-IV activity in male Wistar rats after single oral dose; assay type: in vivo; details: 10 mg/kg, p.o.; for inhibition at 10 mg/kg: rat, po
T2 construct: from tissue; host or cells: EDTA-plasma of male Wistar rats dosed orally
Description: Overnight-fasted male animals were administered either vehicle or single oral doses of compounds. Blood samples were withdrawn from retro-bulbar venous plexus under anesthesia at several time points up to 24 h post-dose. EDTA-plasma was separated and DPP-IV activity was measured using a fluorometric assay. Assays were carried out in 96-well flat-bottom black microwell plates. A typical reaction contained 25 μl plasma, 50 μl of 50 μM substrate (Gly-Pro-AMC) and 25 μl assay buffer (25 mM Tris-HCl, pH 7.4, 140 mM NaCl, 10 mM KCl and 1% BSA) in a total reaction volume of 100 μl. Plasma samples were incubated with the substrate for 30 min at 30° C., following which the fluorescence was measured in a microplate fluorescence redaer (POLARstar Galaxy), with excitation and emission wavelengths set at 360 nm and 460 nm, respectively. Percent inhibition in plasma DPP-IV activity due to compounds was calculated by comparing with plasma from vehicle-treated animals.

[1] = compound 10 nM, relative to vehicle controls

T1 sequence (P27487 whole entry): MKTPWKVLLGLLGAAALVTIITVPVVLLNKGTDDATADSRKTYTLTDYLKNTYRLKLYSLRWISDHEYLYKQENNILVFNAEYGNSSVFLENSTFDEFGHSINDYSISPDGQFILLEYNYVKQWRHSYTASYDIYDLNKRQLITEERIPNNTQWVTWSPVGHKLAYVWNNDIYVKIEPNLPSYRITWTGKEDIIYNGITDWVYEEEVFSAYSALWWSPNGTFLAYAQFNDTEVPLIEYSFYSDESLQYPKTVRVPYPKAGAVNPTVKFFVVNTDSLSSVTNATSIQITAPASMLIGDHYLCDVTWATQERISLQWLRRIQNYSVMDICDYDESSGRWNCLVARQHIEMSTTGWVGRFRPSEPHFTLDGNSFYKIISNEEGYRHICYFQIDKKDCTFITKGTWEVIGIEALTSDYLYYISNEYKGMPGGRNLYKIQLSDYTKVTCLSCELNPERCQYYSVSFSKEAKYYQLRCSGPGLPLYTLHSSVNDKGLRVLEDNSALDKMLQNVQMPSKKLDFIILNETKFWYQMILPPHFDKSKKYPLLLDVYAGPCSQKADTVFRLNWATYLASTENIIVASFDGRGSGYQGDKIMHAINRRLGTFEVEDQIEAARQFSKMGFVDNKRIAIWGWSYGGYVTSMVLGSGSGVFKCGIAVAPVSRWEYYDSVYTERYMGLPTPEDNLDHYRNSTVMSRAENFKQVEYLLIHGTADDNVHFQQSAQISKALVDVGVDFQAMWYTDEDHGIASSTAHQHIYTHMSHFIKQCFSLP
T2 sequence (P14740 37-767 limits assumed): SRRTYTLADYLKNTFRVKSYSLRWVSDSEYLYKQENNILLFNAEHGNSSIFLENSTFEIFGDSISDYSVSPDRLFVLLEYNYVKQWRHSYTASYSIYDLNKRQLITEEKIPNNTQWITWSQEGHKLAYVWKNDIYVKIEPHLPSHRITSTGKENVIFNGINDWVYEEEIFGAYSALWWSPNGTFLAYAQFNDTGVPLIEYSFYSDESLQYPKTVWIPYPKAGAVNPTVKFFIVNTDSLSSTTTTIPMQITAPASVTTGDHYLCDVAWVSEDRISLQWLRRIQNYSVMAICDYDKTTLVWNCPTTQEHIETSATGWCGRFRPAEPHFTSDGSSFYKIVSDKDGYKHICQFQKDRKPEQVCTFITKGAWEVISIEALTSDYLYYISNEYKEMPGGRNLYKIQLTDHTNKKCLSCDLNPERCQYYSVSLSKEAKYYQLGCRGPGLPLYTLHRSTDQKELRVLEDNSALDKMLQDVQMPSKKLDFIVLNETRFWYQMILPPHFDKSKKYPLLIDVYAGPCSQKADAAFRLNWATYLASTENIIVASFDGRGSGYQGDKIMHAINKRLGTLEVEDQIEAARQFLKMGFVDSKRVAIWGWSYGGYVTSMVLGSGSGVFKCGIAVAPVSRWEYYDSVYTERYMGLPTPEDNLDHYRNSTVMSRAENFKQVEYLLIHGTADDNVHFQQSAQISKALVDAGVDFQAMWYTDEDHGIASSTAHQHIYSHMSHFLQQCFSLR

## C#C[C@H]1CC[C@@H](C#N)N1C(=O)[C@@H](N)C1CC2CCC(C1)N2C(=O)c1ccnc(F)c1 (stereo partly drawn) (as salt: salt) [Compound 66, (2S,5R)-1-{(2S)-2-Amino-2-[8-(2-fluoropyridin-4-carbonyl)-8-aza-bicyclo[3.2.1]-oct-3-yl]-exo-ethanoyl}-5-ethynyl-pyrrolidin-2-carbonitrile trifluoro acetic acid salt]
other
  melting point: 199 to 200 °C

## N[C@H](C(=O)N1CCC[C@H]1C(=O)O)C1CC2CCC(C1)N2C(=O)c1ccc(C(F)(F)F)cc1 (stereo partly drawn) (as salt: trifluoroacetic acid salt) [Compound 11, (2S)-1-{(2S)-2-amino-2-[8-(4-trifluoromethyl-benzoyl)-8-aza-bicyclo[3.2.1]-oct-3-yl]-exo-ethanoyl}-pyrrolidin-2-carboxylic acid trifluoroacetic acid salt]
other
  melting point: 161 to 163 °C

## N#C[C@@H]1C[C@@H]2C[C@@H]2N1C(=O)[C@@H](N)C1CC2CCC(C1)N2C(=O)c1ccnc(F)c1 (stereo partly drawn) (as salt: salt) [Compound 28, (1S,3S,5S)-2-{(2S)-2-amino-2-[8-(2-fluoropyridine-4-carbonyl)-8-aza-bicyclo[3.2.1]-oct-3-yl]-exo-ethanoyl}-2-azabicyclo[3.1.0]-hexane-3-carbonitrile trifluoro acetic acid salt]
other
  melting point: 112 to 115 °C

## N[C@H](C(=O)N1CCSC1)C1CC2CCC(C1)N2C(=O)c1ccc(C(F)(F)F)cc1 (stereo partly drawn) (as salt: trifluoroacetic acid salt) [Compound 21, 3-{(2S)-2-Amino-2-[8-(4-trifluoromethyl-benzoyl)-8-aza-bicyclo[3.2.1]-oct-3-yl]-exo-ethanoyl}-1,3-thiazolidin trifluoroacetic acid salt]
other
  melting point: 123 to 125 °C

## N#C[C@@H]1CCCN1C(=O)[C@@H](N)C1CC2CCC(C1)N2C(=O)c1ccc(C(F)(F)F)cc1.O=C(O)C(F)(F)F (stereo partly drawn) [Compound 2, (2S)-1-{(2S)-2-Amino-2-[8-(4-trifluoromethylbenzoyl)-8-aza-bicyclo[3.2.1]oct-3-yl]-exo-ethanoyl}-pyrrolidin-2-carbonitrile trifluoroacetic acid salt]
Human recombinant DPP-IV
  IC50: 1.3 nM
Plasma DPP-IV; 4 h post-dose
  Plasma DPP-IV Inhibition (%) 4 h: 82%
Plasma DPP-IV; 6 h post-dose
  Plasma DPP-IV Inhibition (%) 6 h: 52%
Plasma DPP-IV; 8 h post-dose
  Plasma DPP-IV Inhibition (%) 8 h: 45%

## NC(=O)[C@@H]1C[C@@H]2C[C@@H]2N1C(=O)[C@@H](N)C1CC2CCC(C1)N2C(=O)c1ccc2c(c1)OCO2 (stereo partly drawn) (as salt: salt) [Compound 45, (1S,3S,5S)-2-{(2S)-2-Amino-2-[8-(benzo-[1,3]dioxole-5-carbonyl)-8-aza-bicyclo[3.2.1]oct-3-yl]-exo-ethanoyl}-2-azabicyclo[3.1.0]-hexane-3-carboxamide trifluoro acetic acid salt]
other
  melting point: 154 to 156 °C

## N#C[C@H]1CSCN1C(=O)[C@@H](N)C1CC2CCC(C1)N2C(=O)c1ccc(C(F)(F)F)cc1 (stereo partly drawn) (as salt: salt) [Compound 20, (4S)-3-{(2S)-2-Amino-2-[8-(4-trifluoromethyl-benzoyl)-8-aza-bicyclo[3.2.1]oct-3-yl]-exo-ethanoyl}-thiazolidin-4-carbonitrile trifluoroacetetic acid salt]
other
  melting point: 159 to 161 °C

## N[C@H](C(=O)N1[C@H](C(=O)O)C[C@@H]2C[C@@H]21)C1CC2CCC(C1)N2C(=O)c1ccc2c(c1)OCO2 (stereo partly drawn) (as salt: hydrochloride) [Compound 46, (1S,3S,5S)-2-{(2S)-2-Amino-2-[8-(benzo[1,3]-dioxole-5-carbonyl)-8-aza-bicyclo[3.2.1]-oct-3-yl]-exo-ethanoyl}-2-azabicyclo[3.1.0]hexane-3-carboxylic acid hydrochloride]
other
  melting point: 280 °C (dec.)

## C#C[C@H]1CC[C@@H](C#N)N1C(=O)[C@@H](N)C1CC2CCC(C1)N2C(=O)c1ccc(C(F)(F)F)cc1 (stereo partly drawn) (as salt: salt) [Compound 63, (2S,5R)-1-{(2S)-2-Amino-2-[8-(4-trifluoromethyl-benzoyl)-8-aza-bicyclo[3.2.1]oct-3-yl]-exo-ethanoyl}-5-ethynyl-pyrrolidin-2-carbonitrile trifluoro acetic acid salt]
other
  melting point: 160 to 163 °C

## N#C[C@@H]1CCCN1C(=O)[C@@H](N)C1CC2CCC(C1)N2C(=O)c1cc(F)c(F)cc1F (stereo partly drawn) [Compound 1, (2S)-1-{(2S)-2-Amino-2-[8-(2,4,5-trifluorobenzoyl)-8-aza-bicyclo[3.2.1]oct-3-yl]-exo-ethanoyl}-pyrrolidin-2-carbonitrile trifluoroacetic acid salt]
Human recombinant DPP-IV
  IC50: 2.2 nM
Plasma DPP-IV; 4 h post-dose, read-out: Plasma DPP-IV Inhibition (%) 4 h
  inhibition at 10 mg/kg: 85%
Plasma DPP-IV; 6 h post-dose, read-out: Plasma DPP-IV Inhibition (%) 6 h
  inhibition at 10 mg/kg: 56%
Plasma DPP-IV; 8 h post-dose, read-out: Plasma DPP-IV Inhibition (%) 8 h
  inhibition at 10 mg/kg: 44%

## N#C[C@@H]1C[C@@H]2C[C@@H]2N1C(=O)[C@@H](N)[C@@H]1C[C@H]2CC[C@@H](C1)N2C(=O)c1ccncc1.O=C(O)C(F)(F)F [Compound 25, (1S,3S,5S)-2-{(2S)-2-Amino-2-[8-(pyridine-4-carbonyl)-8-aza-bicyclo[3.2.1]oct-3-yl]-exo-ethanoyl}-2-azabicyclo[3.1.0]hexane-3-carbonitrile trifluoroacetic acid salt]
Human recombinant DPP-IV
  IC50: 3.61 nM
Plasma DPP-IV; 4 h post-dose
  Plasma DPP-IV Inhibition (%) 4 h: 68%
Plasma DPP-IV; 6 h post-dose
  Plasma DPP-IV Inhibition (%) 6 h: 49%
Plasma DPP-IV; 8 h post-dose
  Plasma DPP-IV Inhibition (%) 8 h: 51%

## CCC(CC)N1C2CCC1CC([C@H](N)C(=O)N1[C@H](C#N)C[C@@H]3C[C@@H]31)C2.O=C(O)C(F)(F)F (stereo partly drawn) [Compound 59, (1S,3S,5S)-2-{(2S)-2-Amino-2-[8-(1-ethyl-propyl)-8-aza-bicyclo[3.2.1]oct-3-yl]-exo-ethanoyl}-2-azabicyclo[3.1.0]hexane-3-carbonitrile trifluoroacetic acid salt]
Human recombinant DPP-IV; [1]
  % inhibition at 10 nM: 34% inhibition at 10 nM

## N#C[C@@H]1C[C@@H]2C[C@@H]2N1C(=O)[C@@H](N)C1CC2CCC(C1)N2CCOCc1ccccc1.O=C(O)C(F)(F)F (stereo partly drawn) [Compound 50, (1S,3S,5S)-2-{(2S)-2-Amino-2-[8-(benzyloxy-ethyl)-8-aza-bicyclo[3.2.1]oct-3-yl]-exo-ethanoyl}-2-azabicyclo[3.1.0]hexane-3-carbonitrile trifluoroacetic acid salt]
Human recombinant DPP-IV; [1]
  % inhibition at 10 nM: 21% inhibition at 10 nM

## N#C[C@@H]1C[C@@H]2C[C@@H]2N1C(=O)[C@@H](N)C1CC2CCC(C1)N2C(=O)C1CCCCC1.O=C(O)C(F)(F)F (stereo partly drawn) [Compound 58, (1S,3S,5S)-2-{(2S)-2-Amino-2-[8-(cyclohexane-carbonyl)-8-aza-bicyclo[3.2.1]oct-3-yl]-exo-ethanoyl}-2-azabicyclo[3.1.0]hexane-3-carbonitrile trifluoroacetic acid salt]
Human recombinant DPP-IV; [1]
  % inhibition at 10 nM: 31% inhibition at 10 nM

## N#C[C@@H]1C[C@@H]2C[C@@H]2N1C(=O)[C@@H](N)C1CC2CCC(C1)N2C(=O)c1ccc2c(c1)OCO2 (stereo partly drawn) [Compound 44, (1S,3S,5S)-2-{(2S)-2-Amino-2-[8-(benzo[1,3]-dioxole-5-carbonyl)-8-aza-bicyclo[3.2.1]oct-3-yl]-exo-ethanoyl}-2-azabicyclo[3.1.0]-hexane-3-carbonitrile trifluoroacetic acid salt]
Human recombinant DPP-IV
  IC50: 2.4 nM

## N#Cc1ccc(N2C3CCC2CC([C@H](N)C(=O)N2[C@H](C#N)C[C@@H]4C[C@@H]42)C3)nc1 (stereo partly drawn) [Compound 51, (1S,3S,5S)-2-{(2S)-2-Amino-2-[8-(5-cyanopyridine-2-yl)-8-aza-bicyclo[3.2.1]oct-3-yl]-exo-ethanoyl}-2-azabicyclo[3.1.0]hexane-3-carbonitrile trifluoroacetic acid salt]
Human recombinant DPP-IV
  IC50: 9.6 nM

## N#C[C@@H]1C[C@@H]2C[C@@H]2N1C(=O)[C@@H](N)C1CC2CCC(C1)N2CC12CC3CC(CC(C3)C1)C2.O=C(O)C(F)(F)F (stereo partly drawn) [Compound 49, (1S,3S,5S)-2-{(2S)-2-Amino-2-[8-(adamantan-1-ylmethyl)-8-aza-bicyclo[3.2.1]oct-3-yl]-exo-ethanoyl}-2-azabicyclo[3.1.0]hexane-3-carbonitrile trifluoroacetic acid salt]
Human recombinant DPP-IV; compound 100 nM, relative to vehicle controls
  % inhibition at 100 nM: 60% inhibition at 100 nM

## N#C[C@H]1CC[C@@H](C(=O)OCc2ccccc2)N1C(=O)[C@@H](N)C1CC2CCC(C1)N2C(=O)c1ccc(C(F)(F)F)cc1 (stereo partly drawn) [Compound 18, Benzyl-(2S,5R)-1-{(2S)-2-amino-2-[8-(4-trifluoromethyl-benzoyl)-8-aza-bicyclo[3.2.1]-oct-3-yl]-exo-ethanoyl}-5-cyano pyrrolidin-2-carboxylate trifluoroacetic acid salt]
Human recombinant DPP-IV; compound 10 nM, relative to vehicle controls, read-out: % inhibition at 10 nM
  inhibition at 0.01 µM: 1.11%

## NC(=O)[C@@H]1CCCN1C(=O)[C@@H](N)C1CC2CCC(C1)N2C(=O)c1ccc(C(F)(F)F)cc1.O=C(O)C(F)(F)F (stereo partly drawn) [Compound 12, (2S)-1-{(2S)-2-amino-2-[8-(4-trifluoromethyl-benzoyl)-8-aza-bicyclo[3.2.1]-oct-3-yl]-exo-ethanoyl}-pyrrolidin-2-carboxamide trifluoroacetic acid salt]
Human recombinant DPP-IV; compound 1000 nM, relative to vehicle controls
  % inhibition at 1000 nM: 30% inhibition at 1000 nM

Source: US8338450B2, “Compounds as dipeptidyl peptidase IV (DPP IV) inhibitors” (Lupin Limited, priority 2007, dated 2012)
